From ChEMBL document CHEMBL1201862, “PubChem BioAssay data set” (2004)
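Dose response: 5 concentrations. Exposure: 48 h. Format: 96-well plates. Endpoint: linear interpolation; highest concentration if not reached. Abbreviation: GI50, concentration required for 50% inhibition of growth.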 Active and inactive are the calls of the source. Rule as the data show it: active = GI50 up to about 1.1 µM and inactive = higher.

Columns and labels:
Experiment in all cases: inhibition of tumour cell growth, NCI panel, 48 h
[1] = test system: A549
[2] = test system: ACHN
[3] = test system: EKVX
[4] = test system: HT-29
[5] = test system: Hs-578T
[6] = test system: KM12
[7] = test system: MCF7
[8] = test system: MOLT-4
[9] = test system: Malme-3M
[10] = test system: NCI-H226
[11] = test system: NCI-H522
[12] = test system: SF-268
[13] = test system: SF-295
[14] = test system: SK-MEL-28
[15] = test system: SK-OV-3
[16] = test system: SNB-19
[17] = test system: UACC-257
[18] = test system: HCT-15
[19] = test system: RPMI-8226
[20] = test system: SNB-75

Structure (SMILES) | GI50 [1] | GI50 [2] | GI50 [3] | GI50 [4] | GI50 [5] | GI50 [6] | GI50 [7] | GI50 [8] | GI50 [9] | GI50 [10] | GI50 [11] | GI50 [12] | GI50 [13] | GI50 [14] | GI50 [15] | GI50 [16] | GI50 [17] | GI50 [18] | GI50 [19] | GI50 [20]
CCc1n[nH]c(=O)n1O | > 100 µM (inactive) | > 100 µM (inactive) | > 100 µM (inactive) | > 100 µM (inactive) | > 100 µM (inactive) | > 100 µM (inactive) | > 100 µM (inactive) | > 100 µM (inactive) | > 100 µM (inactive) | > 100 µM (inactive) | > 100 µM (inactive) | > 100 µM (inactive) | > 100 µM (inactive) | > 100 µM (inactive) | > 100 µM (inactive) | > 100 µM (inactive) | > 100 µM (inactive) | – | – | –
Cc1ccc(S(=O)(=O)C2=C([Si](C)(C)C)C3CC2[C@@H]2C4C=CC(CC4)[C@H]32)cc1 (some centres not stated) | > 100 µM (inactive) | 99.5 µM (inactive) | > 100 µM (inactive) | > 100 µM (inactive) | 39.1 µM (inactive) | > 100 µM (inactive) | > 100 µM (inactive) | > 100 µM (inactive) | > 100 µM (inactive) | 95.3 µM (inactive) | 51.9 µM (inactive) | 38.1 µM (inactive) | 28.4 µM (inactive) | > 100 µM (inactive) | 45.1 µM (inactive) | 23.8 µM (inactive) | > 100 µM (inactive) | > 100 µM | – | –
O=C1C=CC(=O)N1n1c(-c2ccccc2)n[nH]c1=O | > 100 µM (inactive) | – | > 100 µM (inactive) | > 100 µM (inactive) | > 100 µM (inactive) | – | > 100 µM (inactive) | > 100 µM (inactive) | > 100 µM (inactive) | > 100 µM (inactive) | > 100 µM (inactive) | > 100 µM (inactive) | > 100 µM (inactive) | – | > 100 µM (inactive) | – | > 100 µM (inactive) | > 100 µM | – | –
C=CCSC1=N/C(=C\c2ccc(OC)cc2)C(=O)N1CC=C | 30.9 µM (inactive) | 33.3 µM (inactive) | 19.7 µM (inactive) | 20.2 µM (inactive) | 64.7 µM (inactive) | 21.9 µM (inactive) | 28.4 µM (inactive) | 13.7 µM (inactive) | 27.7 µM (inactive) | – | 27.7 µM (inactive) | 60.4 µM (inactive) | 35.3 µM (inactive) | 42.5 µM (inactive) | > 100 µM (inactive) | 84.3 µM (inactive) | 23.2 µM (inactive) | 20.8 µM | 15.5 µM (inactive) | –
O=C(O)Cn1cc([N+](=O)[O-])c(=O)c2ccccc21 | > 100 µM (inactive) | > 100 µM (inactive) | – | > 100 µM (inactive) | > 100 µM (inactive) | > 100 µM (inactive) | > 100 µM (inactive) | > 100 µM (inactive) | > 100 µM (inactive) | > 100 µM (inactive) | > 100 µM (inactive) | > 100 µM (inactive) | > 100 µM (inactive) | > 100 µM (inactive) | > 100 µM (inactive) | > 100 µM (inactive) | > 100 µM (inactive) | > 100 µM | – | > 100 µM (inactive)
C[C@H]1O[C@@H](c2c(O)ccc3ccccc23)C[C@@H](N(C)C)C1O (some centres not stated) | > 100 µM (inactive) | > 100 µM (inactive) | > 100 µM (inactive) | 54.6 µM (inactive) | 80.4 µM (inactive) | – | > 100 µM (inactive) | – | 48 µM (inactive) | 43.7 µM (inactive) | > 100 µM (inactive) | > 100 µM (inactive) | > 100 µM (inactive) | 97.5 µM (inactive) | > 100 µM (inactive) | > 100 µM (inactive) | 26.5 µM (inactive) | > 100 µM | – | 43.8 µM (inactive)
Clc1ccc(C(c2ccc(Cl)cc2)c2cncnc2)cc1 | 20.5 µM (inactive) | 19.2 µM (inactive) | > 10 µM (inactive) | 15.1 µM (inactive) | 18.3 µM (inactive) | 18.3 µM (inactive) | 15.3 µM (inactive) | 20.6 µM (inactive) | 19.1 µM (inactive) | – | 17.2 µM (inactive) | 17.8 µM (inactive) | 17.9 µM (inactive) | 18.5 µM (inactive) | 16 µM (inactive) | 18.1 µM (inactive) | 19.3 µM (inactive) | 19.6 µM | 34.4 µM (inactive) | –
Oc1ccc(/C=N/c2nccs2)c(O)c1 | > 100 µM (inactive) | > 100 µM (inactive) | > 100 µM (inactive) | > 100 µM (inactive) | > 100 µM (inactive) | 16 µM (inactive) | 64 µM (inactive) | – | > 100 µM (inactive) | > 100 µM (inactive) | > 100 µM (inactive) | > 100 µM (inactive) | > 100 µM (inactive) | – | > 100 µM (inactive) | > 100 µM (inactive) | > 100 µM (inactive) | > 100 µM | – | > 100 µM (inactive)
